Experimental data taken from PMC11645267, “Novel pharmacologic inhibition of lysine-specific demethylase 1 as a potential therapeutic for glioblastoma” (Cancer Gene Therapy, 2024).
pIC50: −log10 of the molar value.

Tests used:
glioma stem cells (GSCs) = test: Cell growth / viability in glioma stem cells; format: cell-based
Excerpt: Inhibition of LSD1 can effectively suppress stem-like tumor-propagating cells in human glioma.
Supplementary materials and methods
RNA-seq data of malignant glioma (n=157) and normal tissue (n=5) were obtained from TCGA (http://xena.ucsc.edu/).
Cell lines and culture conditions
Glioblastoma cell line, LN229, was obtained from the American Type Culture Collection (ATCC, Manassas, VA, USA). Normal fibroblast cell lines TIG3 and WI-38, TM31 (low grade glioma) were obtained from the RIKEN Bioresource Research Center (Tsukuba, Japan). Onda10 and KINGS1 (low grade glioma) cell lines were obtained from the Japanese Collection of Research Bioresources (Ibaraki, Japan). F3 is utilized as a neural stem cell line{Kim, 2004 #1412}{Natsume, 2013 #1009}. All cells were maintained in DMEM medium (Wako, Osaka, Japan) containing 5% fetal bovine serum (FBS, Thermo Fisher Scientific, Waltham, MA, USA) and 1% penicillin-streptomycin (Wako). Glioma stem cell lines (GSC1228, GSC316, and GSC222) were established previously{Natsume, 2013 #1009}{Katsushima, 2016 #1156}. […]
For the cell proliferation assay, cells at a density of 1 × 10^5 cells per well were seeded before treatment with LSD1 inhibitors. Cell proliferation was measured after 4 days using a Cell Counting Kit 8 (Dojindo, Kumamoto, Japan) according to the manufacturer ’s […]

[1] = tested on: GSC1228, GSC222, and GSC316; test: Western blot of global histone modifications; format: cell-based; settings: 5 μM, 96 h; changes not statistically significant
Method: The effects of S2172 on global histone modifications in GSCs were examined using western blot analysis. GSC cells were treated with 5 μM of S2172 since […] of the cells are still viable at this concentration (Fig. 2, Supplementary Fig. S1E). […] Treatment of GSCs with S2172 increased the overall levels of H3K4me2 as well as H3K9me2. However, these changes were not statistically significant (Fig. 2A, B).
Fig. 2 S2172 affected H3K4me2 modifications. A Western blot analysis of H3K4me1, H3K4me2, H3K4me3, H3K9me2, and H3 after treatment with either DMSO or S2172 (5 μM) for 96 h in GSC1228, GSC222, and GSC316. Histone H3 was used as the loading control. B Quantification of band signal intensities from the western blot of A. The y-axis in the panel indicates relative signal intensity of each protein normalized to histone H3. Error bars indicate the SD. […]
The density of bands was quantified using ImageJ software (https://imagej.nih.gov/ij/). […]
When mice were scanned with MRI, mice were anesthetized with isoflurane (3% in air) and placed in MRS 3017 Benchtop MRI Systems (MR Solutions, Guildford, UK). Using MRI images, tumor volumes were obtained by compiling tumor areas from all slices that contained tumors and calculated by ImageJ software (https://imagej.nih.gov/ij/) {Towner, […]

pIC50 (glioma stem cells (GSCs); mean over glioma stem cells, read-out: mean half-maximal inhibitory concentration (IC50), cell growth in GSCs): 4.86
SMILES: NC1CCC(NC2CC2c2cc(F)cc(F)c2OCc2ccccc2)CC1 (stereo not drawn) [S2172]
viability at 5 µM (glioma stem cells (GSCs); GSC cells, 5 μM, read-out: viable cells): < 80% | overall levels of H3K4me2 and H3K9me2 [1]: increased
